In patent publication US5945436A, “Pyridylmethyl nitriles, amides and thioamides useful as fungicides” (Uniroyal Chemical Company, Inc., priority 1997, dated 1999):

Columns and labels:
Helminthosporium sativum = experiment: Barley spot blotch, foliar treatment (HEL SAT); type: in vivo; details: foliar, 1,000 mg/l; for pest or weed control at 1000 µg/mL: Helminthosporium, foliar, 216 h, read-out: Percent Reduction of Disease, HEL SAT
In short: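 Six-day-old "Robust" barley, 10 plants per pot, sprayed at 1,000 mg/l (acetone solution emulsified in water with TWEEN 20) or left unsprayed as controls. All plants then inoculated with H. sativum spores, held 24 h at 99% humidity, then 8 days in greenhouse at 21° C. Percent control computed.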

Colletotrichum gossypii = experiment: Fungal growth inhibition, treated disc on agar (COL GOS); type: cell-based; details: disc dipped in 500 mg/l, 29° C.; for inhibition at 500 µg/mL: Colletotrichum gossypii, read-out: Percent Growth Inhibition, COL GOS
Erysiphe polygoni = experiment: Powdery mildew on pinto bean, foliar application (ERY POL); type: in vivo; details: similar procedure as barley (1,000 mg/l); for pest or weed control at 1000 µg/mL: Erysiphe polygoni, read-out: Percent Reduction of Disease, ERY POL
In short: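 Pinto bean plants sprayed with compound emulsion (acetone or inert solvent, TWEEN 20, water) at 1,000 mg/l, or left unsprayed, dried, then inoculated with Erysiphe polygoni spores in a 21° C greenhouse. Disease scored; percent control computed against untreated controls.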

Pythium ultimum = experiment: Fungal growth inhibition, treated disc on agar (PYT ULT); type: cell-based; details: disc dipped in 500 mg/l, 29° C.; for inhibition at 500 µg/mL: Globisporangium ultimum, read-out: Percent Growth Inhibition, PYT ULT
Erysiphe cichoracearum = experiment: Powdery mildew of cucumber, systemic root uptake (CMS); type: in vivo; details: 45 ml of 250 mg/l, 8 days after inoculation
In short: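 Pot soil of barley (BMS) and cucumber (CMS) plants was drenched with 45 ml of a 250 mg/l acetone/Tween 20 aqueous emulsion, with untreated plants as controls. Disease was scored on a rating scale that included intermediate grades.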

[1] = test system: Cercosporidium personatum; experiment: Fungal germination and growth, treated disc on agar, scored (CER PER); type: cell-based; design: key: 100: Complete inhibition of germination and growth.; 80: Nearly complete inhibition but some growth.; 50: Partial inhibition of growth or, early complete inhibition but later growth begins.; 20: Some inhibition of growth, but not significant.; 0: No inhibition of growth; details: disc dipped in 500 mg/l, 29° C., numerical score 0-100, spore suspension
In short: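 Acetone test solutions dried on 11 mm filter paper discs, placed on agar; two drops of C. personatum spore suspension (20,000 spores/ml) applied per disc. Plates incubated at 29° C; germination and growth scored 0 (no inhibition) to 100 (complete inhibition), untreated discs as controls.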

Pyricularia oryzae = experiment: whole plant or invertebrate; type: in vivo; details: for pest or weed control at 1000 µg/mL: Pyricularia oryzae, in Hordeum vulgare, foliar, 216 h, read-out: Percent Reduction of Disease, PYR ORY, barley, foliar, 1,000 mg/l
Scierotinia minor = experiment: Fungal growth inhibition, treated disc on agar (SCL MIN); type: cell-based; details: disc dipped in 500 mg/l, 29° C.; for inhibition at 500 µg/mL: read-out: Percent Growth Inhibition, SCL MIN

Row | Compound | pest or weed control at 1000 µg/mL (Helminthosporium sativum) | inhibition at 500 µg/mL (Colletotrichum gossypii) | pest or weed control at 1000 µg/mL (Erysiphe polygoni) | inhibition at 500 µg/mL (Pythium ultimum) | Percent Reduction of Disease, CMS (Erysiphe cichoracearum) | CER PER inhibition score [1] | pest or weed control at 1000 µg/mL (Pyricularia oryzae) | inhibition at 500 µg/mL (Scierotinia minor) | Percent Reduction of Disease, HEL SAT (Helminthosporium sativum) | Percent Growth Inhibition, COL GOS (Colletotrichum gossypii) | Percent Reduction of Disease, ERY POL (Erysiphe polygoni) | Percent Growth Inhibition, PYT ULT (Pythium ultimum) | Percent Reduction of Disease, PYR ORY (Pyricularia oryzae; barley, foliar, 1,000 mg/l) | Percent Growth Inhibition, SCL MIN (Scierotinia minor)
1 | C=CCC(C#N)(CCc1ccc(C)cc1)c1cccnc1 (centres unmarked) [Compound 33] | 100% | 100% | 100% | 50% | 20% | 0 | 85% | 100% |  |  |  |  |  | 
2 | CCCC(C#N)(Cc1ccc(C(C)(C)C)cc1)c1cccnc1 (centres unmarked) [Compound 14] | 60% | 5% | 100% | 10% | 84% | 0 | 100% | 5% |  |  |  |  |  | 
3 | COc1ccc(CCC(C#N)(CC2CC2)c2cccnc2)cc1 (centres unmarked) [Compound 37] | 100% | 100% | 92% | 9% | 0% | 0 | 100% | 100% |  |  |  |  |  | 
4 | CCCCC(C#N)(CCc1ccc(F)cc1)c1cccnc1 (centres unmarked) [Compound 11] | 100% | 100% | 100% | 40% | 39% | 0 | 85% | 98% |  |  |  |  |  | 
5 | C#CCC(CCc1ccccc1)(C(N)=S)c1cccnc1 (stereo not drawn) [Compound 61, α-(2-phenylethyl)-α-(2-propynyl)-3-pyridinethanethioamide] | 85% | 100% | 100% | 100% | 40% | 100 | 50% | 100% |  |  |  |  |  | 
6 | CC(C)=CCC(C#N)(CCc1ccccc1)c1cccnc1 (centres unmarked) [Compound 8] | 100% | 95% | 99% | 35% | 0% | 80 | 0% | 100% |  |  |  |  |  | 
7 | CCCCC(C#N)(CCCc1ccc(Cl)cc1)c1cccnc1 (centres unmarked) [Compound 13] | 100% | 93% | 100% | 10% | 0% | 0 | 85% | 94% |  |  |  |  |  | 
8 | CCCC(C#N)(CCCc1ccccc1Cl)c1cccnc1 (stereo not drawn) [Compound 15, 2-chloro-α-propyl-(3-pyridinyl)benzene pentanenitrile] | 100% | 93% | 100% | 83% | 96% | 100 | 85% | 100% |  |  |  |  |  | 
9 | CC(C)=CCC(C#N)(CCc1ccc(F)cc1)c1cccnc1 (centres unmarked) [Compound 47] | 100% | 100% | 90% | 100% | 0% | 0 | 0% | 100% |  |  |  |  |  | 
10 | C=CCC(C#N)(CCc1ccc(F)cc1)c1cccnc1 (stereo not drawn) [Compound 9, 4-fluoro-α-(2-propenyl)-α-(3-pyridinyl)benzenebutanenitrile] | 85% | 100% | 99% | 35% | 74% | 100 | 70% | 98% |  |  |  |  |  | 
11 | COCC(C#N)(CCc1ccccc1)c1cccnc1 (centres unmarked) [Compound 6] | 100% | 95% | 100% | 50% | 100% | 0 | 0% | 100% |  |  |  |  |  | 
12 | CCCCC(C#N)(CCc1ccc(OCCF)cc1)c1cccnc1 (centres unmarked) [Compound 68] | 100% | 100% | 100% | 40% | 0% | 100 | 70% | 100% |  |  |  |  |  | 
13 | CCCC(C#N)(CCc1ccccc1F)c1cccnc1 (centres unmarked) [Compound 75] | 92% | 100% | 100% | 1% | 0% | 0 | 0% | 92% |  |  |  |  |  | 
14 | COCC(C#N)(CCc1ccc(OC)cc1)c1cccnc1 (centres unmarked) [Compound 50] | 100% | 100% | 100% | 10% | 0% | 0 | 0% | 100% |  |  |  |  |  | 
15 | CC=CCC(C#N)(CCc1ccc(F)cc1)c1cccnc1 (centres unmarked) [Compound 59] | 90% | 100% | 90% | 5% | 0% | 0 | 85% | 70% |  |  |  |  |  | 
16 | CCCC(C#N)(CCCc1ccc(Cl)cc1)c1cccnc1 (centres unmarked) [Compound 12] | 100% | 93% | 95% | 90% | 40% | 100 | 85% | 92% |  |  |  |  |  | 
17 | CCCCC(C#N)(CCc1ccc(OC)cc1)c1ccccn1 (centres unmarked) [Compound 31] |  |  |  |  | 0% | 0 |  |  | 90% | 70% | 90% | 93% | 0% | 75%
18 | CCCCC(C#N)(CCc1ccc(OCC)cc1)c1cccnc1 (centres unmarked) [Compound 35] | 100% | 97% | 100% |  | 0% | 0 | 55% |  |  |  |  | 0% |  | 88%
19 | CCCC(C#N)(CCCc1ccccc1OC)c1cccnc1 (centres unmarked) [Compound 71] | 100% | 100% | 100% | 60% | 80% | 100 | 0% | 100% |  |  |  |  |  | 
20 | N#CC(CCc1ccc(F)cc1)(CCC(F)(F)F)c1cccnc1 (centres unmarked) [Compound 77] | 90% | 15% | 100% | 30% | 100% | 0 | 35% | 40% |  |  |  |  |  | 
21 | CCCCCCC(C#N)(CCc1ccc(OCC)cc1)c1cccnc1 (centres unmarked) [Compound 44] | 100% | 100% | 90% | 89% | 0% | 100 | 17% | 100% |  |  |  |  |  | 
22 | C=CCC(C#N)(Cc1ccc(C(C)(C)C)cc1)c1cccnc1 (centres unmarked) [Compound 18] | 100% | 10% | 100% | 40% | 20% | 0 | 85% | 10% |  |  |  |  |  | 
